Laboratory results reported in publication PMC4458377 (Biochemistry, 2014).

Legend:
[1] = target: T1, BAZ2B bromodomain (Homo sapiens, UniProt Q9UIF8); conditions: acetylated lysine alone; cited from earlier work
T1 sequence (Q9UIF8 1868-1972 isoform Q9UIF8-4): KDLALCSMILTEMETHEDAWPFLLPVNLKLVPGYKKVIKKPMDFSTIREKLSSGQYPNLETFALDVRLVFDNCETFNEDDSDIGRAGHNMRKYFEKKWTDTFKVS

[2] = target: T1, BAZ2B bromodomain; assay: ITC of H3K14ac peptides binding to BAZ2B bromodomain

Compound	interaction with BAZ2B bromodomain [1]	Kd [2]	reduction in affinity relative to Peptide 4 ([2]; ITC KD ratio)
CC(=O)NCCCC[C@H](N)C(=O)O [Acetylated lysine, N-ε-acetyl lysine]	interact only very weakly	–	–
CC(=O)NCCCC[C@H](NC(=O)CNC(=O)CNC(=O)[C@@H](NC(=O)[C@H](CO)NC(C)=O)[C@@H](C)O)C(=O)N[C@@H](C)C(=O)N1CCC[C@H]1C(=O)N[C@@H](CCCNC(=N)N)C(=O)N[C@@H](CCCCN)C(N)=O [Peptide 1]	–	45 ± 3.3 µM	2 fold
CC(=O)NCCCC[C@H](NC(=O)CNC(=O)CNC(=O)[C@@H](NC(=O)[C@H](CO)NC(=O)[C@H](CCCCN)NC(C)=O)[C@@H](C)O)C(=O)N[C@@H](C)C(=O)N1CCC[C@H]1C(=O)N[C@@H](CCCNC(=N)N)C(=O)N[C@@H](CCCCN)C(=O)N[C@@H](CCC(N)=O)C(N)=O [Peptide 3]	–	15.7 ± 1.1 µM	–
Ac-KSTGGK(Ac)APRK-NH2 [Peptide 4]	–	21.8 ± 1.4 µM	–
